Patent publication US20240110200A1, “Recombinant AAV Vectors and Gene Therapies for Treating Brain Diseases” (City University of Hong Kong, priority 2022, published 2024)
*1 amine or outer side, *2 acyl side, *3 side chain or, on linkers, in order; H or OH if unused. Where a SMILES comes first, the peptide text is derived from it. Where no end group is shown, it is not given here. Side-chain parts run from the residue outwards. [ ]: non-standard residue; d: D form. The star is where a group is joined. NMeF = CN[C@@H](Cc1ccccc1)C(=O)O; NH(2-Me-phenyl) = Cc1ccccc1N*; Boc = CC(C)(C)OC(=O)*; CO = O=C([*:1])[*:2]; Ahx = NCCCCCC(=O)O

Legend:
GPR173 [1] = molecular target: T1, GPR173 (Homo sapiens, UniProt Q9NS66); test: Calcium imaging assay in CHO-GPR173 cell line; type: cell-based; conditions: for calcium signal in CHO-GPR173 cells: after incubation with the peptide
T1 sequence (Q9NS66 whole entry, species assumed): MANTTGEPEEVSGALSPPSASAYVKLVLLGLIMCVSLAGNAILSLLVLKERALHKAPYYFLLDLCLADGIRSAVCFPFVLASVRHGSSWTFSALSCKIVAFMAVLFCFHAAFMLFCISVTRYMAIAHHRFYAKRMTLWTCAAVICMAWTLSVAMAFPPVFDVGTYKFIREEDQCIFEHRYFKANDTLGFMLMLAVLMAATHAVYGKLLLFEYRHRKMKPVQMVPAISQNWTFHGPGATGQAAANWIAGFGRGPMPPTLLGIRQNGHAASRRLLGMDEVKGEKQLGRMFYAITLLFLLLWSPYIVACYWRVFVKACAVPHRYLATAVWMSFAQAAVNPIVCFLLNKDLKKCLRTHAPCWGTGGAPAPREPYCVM
Procedure: (§1) All measurements of calcium imaging are performed by EnVision 2104 Multilabel Reader (Perkin Elmer, Waltham, Massachusetts, US, https://www.perkinelmer.com, excitation: 485 nm and emission: 535 nm). […] Cells are cultured at 37° C., 5% CO2 in DMEM/F-12 medium (Thermo Fisher, Waltham, MA, US, https://www.thermofisher.cn) containing 10% FBS (Natocor-Industria Biológica) and washed with DMEM/F-12 medium once after overnight incubation.

GPR173 [2] = molecular target: T1, GPR173; test: Antagonism of CCK1R/2R antagonists to GPR173; type: cell-based
Procedure: as §1

[3] = test system: pyramidal neurons (CCK-GABA synapses) in the AC; test: In vitro patch-clamp recording of laser-evoked IPSC in pyramidal neurons of auditory cortex brain slices; type: cell-based, CCK-Cre mice
Procedure: In the experiments of FIGS. 2-3, a protective cutting and recovery method is adopted in preparing acute brain slices of CCK-Cre, PV-Cre, CCK-KO, and CCK1R/2R-KO mice to achieve a higher success rate for patch-clamp, as previously described in Chen, X., et al., Natl. Acad. Sci., Vol. 116, pp. 2019. Briefly, the anaesthetized mice are perfused transcardially with NMDG-aCSF (92 mM NMDG, 2.5 mM KCl, 1.25 mM NaH2PO4, 30 mM NaHCO3, 20 mM HEPES, 25 mM glucose, 2 mM thiourea, 5 mM Na-ascorbate, 3 mM Na-pyruvate, 0.5 mM CaCl2·4H2O, and 10 mM MgSO4·7H2O; pH 7.3-7.4), and the brain is extracted and cut into 300 μm-thick sections. The slices are transferred to NMDG-aCSF for 10 min at 32-34° C. to allow protective recovery and then to room-temperature HEPES-aCSF (92 mM NaCl, 2.5 mM KCl, 1.25 mM NaH2PO4, 30 mM NaHCO3, 20 mM HEPES, 25 mM glucose, 2 mM thiourea, 5 mM Na-ascorbate, 3 mM Na-pyruvate, 2 mM CaCl2·4H2O, and 2 mM MgSO4·7H2O; pH 7.3-7.4) for at least 1 h before recording.
Whole-cell recordings (with Multiclamp 700B amplifier and Digital 1440A digitizer, Molecular Devices, www.moleculardevices.com, Menlo Park, California, USA), targeting the AC of the brain slices in room-temperature aCSF (119 mM NaCl, 2.5 mM KCl, 1.25 mM NaH2PO4, 24 mM NaHCO3, 12.5 mM glucose, 2 mM CaCl2·4H2O and 2 mM MgSO4·7H2O, ˜25° C.) are performed. Patch pipettes are pulled with resistance between 3-5 MQ from borosilicate glass (WPI, World Precision Instruments; UK; httpss://www.wpiinc.com/) on a Sutter-87 puller (Sutter Instrument; CA, US, https://www.sutter.com/). The intracellular solution contains: 145 mM K-Gluconate, 10 mM HEPES, 1 mM EGTA, 2 mM Mg-ATP, 0.3 mM Na2-GTP, and 2 mM MgCl2; pH 7.3; 290-300 mOsm. Similarly, after Giga-Ohm seal formation, recordings are made and then terminated if Rs changes more than 20%. Pyramidal neurons are selected based on the pyramidal-like shape and the firing pattern of regular spiking by injecting step currents.
Laser stimulation is applied through an optical fiber placed ˜200 μm from the recording neuron using Aurora-220 (473 nm, NEWDOON, Changchun, China; http://www.newdoon.com/) to activate ChR2^+ neurons (GABAergic). In the examples, only neurons that respond to the laser pulse is recruited. HFLS (10-pulse burst at 40 Hz, repeated for 10 trials) or Low-frequency Laser Stimulation (LFLS, 1 Hz, 100 pulses) with a 15-s interval is delivered. Inhibitory postsynaptic currents (IPSCs) to the laser stimulation (1 pulse per 15 s, 5 ms in duration) under voltage-clamp recording mode (holding at −60 mV to −50 mV) are recorded for 5 min as the baseline before and for 25 min after the HFLS or LFLS.
For the normalization of recorded IPSC in the CCK-Cre, PV-Cre, CCK-KO, and CCK1R/2R-KO mice, only the patched neurons are recruited when the IPSC is greater than 35 pA.

Flag-GPR173 = molecular target: T2, Flag-GPR173 (Homo sapiens, UniProt Q9NS66); test: Cell surface binding assay, HEK293T cells transfected with Flag-GPR173; conditions: CCK-binding assay, FIG. 4B
T2 construct: host or cells: HEK293T
T2 sequence (Q9NS66 whole entry): as the sequence (Q9NS66 whole entry, species assumed) above
Procedure: HEK293T cells are transfected with pCDNA3.1(+)-Flag-GPCR (purchased from Public Protein/Plasmid Library, Nanjing, China, http://ppl.biogot.com; or home-made by us based on pCDNA3.1(+) backbone). The cells are incubated with HA-ε-Ahx-ε-Ahx or HA-(ε-Ahx)2-CCK8s dissolved in HHBS solution (Hank's solution including 20 mM N-2-hydroxyethylpiperazine-N′-2-ethanesulfonic acid (HEPES), pH=7.4) for 30 min at room temperature, 48 h after transfection by Lipo6000 (Beyotime Biotechnology, Shanghai, China, https://www.beyotime.com/). After three washes with HHBS, cells are fixed in 4% paraformaldehyde and 4% sucrose in PBS for 15 min at room temperature. Cells are blocked in 5% normal goat serum in PBS, and staining is performed in detergent-free conditions without cell permeabilization after three washes by PBS. Primary antibody rabbit anti-HA (CST, 3724 Boston, US, https://www.cellsignal.com), anti-GPR173 (PA5-50976, ThermoFisher, Waltham, MA, US, https://www.thermofisher.cn) and mouse anti-Flag (CST-8146, Boston, US, https://www.cellsignal.com) are used to detect HA and Flag tags. For binding assay of pCDNA3.1(+)-AcGFP-CCK1R, only rabbit anti-HAprimary antibody is used to detectHAtag. Images are captured on a Leica SP8 confocal microscope (Leica Microsystems, Danaher Corporation, US, https://www.leica-microsystems.com/). […]

[4] = molecular target: T3, Flag-HTR1B on transfected HEK293T cells (UniProt P28222 1-390); test: cell surface binding assay on HEK293T cells transfected with Flag-tagged GPCRs, anti-HA and anti-Flag staining, confocal
T3 construct: whole, on cells
T3 sequence (P28222 whole entry): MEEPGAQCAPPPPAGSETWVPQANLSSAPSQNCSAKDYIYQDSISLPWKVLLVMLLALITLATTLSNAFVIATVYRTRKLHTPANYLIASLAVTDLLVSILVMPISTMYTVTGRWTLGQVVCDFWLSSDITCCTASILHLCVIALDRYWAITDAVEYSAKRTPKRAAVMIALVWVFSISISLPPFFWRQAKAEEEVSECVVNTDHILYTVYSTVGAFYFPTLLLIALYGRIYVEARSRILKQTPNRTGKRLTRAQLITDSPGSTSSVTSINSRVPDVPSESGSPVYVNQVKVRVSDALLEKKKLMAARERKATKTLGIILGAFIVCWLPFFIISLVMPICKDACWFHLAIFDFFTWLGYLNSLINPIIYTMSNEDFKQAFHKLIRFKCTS
Procedure: HEK293T cells are transfected with pCDNA3.1(+)-Flag-GPCR (purchased from Public Protein/Plasmid Library, Nanjing, China, http://ppl.biogot.com; or home-made by us based on pCDNA3.1(+) backbone). […] After three washes with HHBS, cells are fixed in 4% paraformaldehyde and 4% sucrose in PBS for 15 min at room temperature. Cells are blocked in 5% normal goat serum in PBS, and staining is performed in detergent-free conditions without cell permeabilization after three washes by PBS. […] For binding assay of pCDNA3.1(+)-AcGFP-CCK1R, only rabbit anti-HAprimary antibody is used to detectHAtag. Images are captured on a Leica SP8 confocal microscope (Leica Microsystems, Danaher Corporation, US, https://www.leica-microsystems.com/). Images within each experiment are collected using identical laser-power, offset, and gain.

calcium signal in CHO-GPR173 cells (GPR173 [1]) | IC50 (GPR173 [2]) | Molecule | other results
evokes no response |  | CCK4: CCK2R-selective agonist | 
no calcium signal |  | Phoenixin (DVQPPGLKVWSDPF) [PNX, Phoenixin, peptide claimed in the literature to act through GPR173] | 
 | 0.0123 ± 0.00341 µM | CN1C(=O)[C@@H](NC(=O)c2cc3ccccc3[nH]2)N=C(c2ccccc2)c2ccccc21 [Devazepide] | blockade of HFLS-induced iLTP ([3]; Devazepide 60 nM in bath solution): entirely blocks the iLTP; normalized IPSC 20-25 min after Devazepide infusion and the HFLS ([3]; Devazepide 60 nM in bath solution, baseline 100.18±1.91, HFLS alone 183.70±6.25%, n=8): 103.24±2.54%
 | 0.715 ± 0.0994 µM | CCCCCN(CCCOC)C(=O)C(CCC(=O)O)NC(=O)c1ccc(Cl)c(Cl)c1 (centres unmarked) [Loxiglumide] | 
 | 3.1 µM | CNc1cccc(NC(=O)N[C@@H]2N=C(c3ccccn3)c3ccccc3N(CC(=O)C(C)(C)C)C2=O)c1 [YF476] | 
 |  | Cc1ccccc1NC(=O)NCCCC[C@H](NC(=O)[C@H](Cc1c[nH]c2ccccc12)NC(=O)OC(C)(C)C)C(=O)N[C@@H](CC(=O)O)C(=O)N(C)[C@@H](Cc1ccccc1)C(N)=O [A-71623] (Boc-WK([CO-NH(2-Me-phenyl)])D[NMeF]-NH2) | activation of the CHO-GPR173 cell line (GPR173 [1]; even at 100 μM): does not activate
 |  | {HA tag-Ahx-Ahx}-DYMGWMDF (peptide, UniProt P06307 96-103, looked up, not shown: small tags and cut ends, ends and bridges not checked; also: sulphated CCK8, site not given here, Chemically synthesised; also called HA-(ε-Ahx)2-CCK8s; HA-labeled CCK8s) [HA2A8s (HA-ε-Ahx-ε-Ahx-CCK8s)] | binding result [4]: no binding

Molecule | calcium signal in CHO-GPR173 cells (GPR173 [1]) | IC50 (GPR173 [2]) | other results
CCK8s | strong calcium response |  | binding affinity of Flag-GPR173 with CCK8s (Flag-GPR173): prominent binding affinity; normalized IPSC amplitude 25-30 min after CCK8s+1 Hz ([3]; 200-nM CCK8s bath application 3 min before LFLS (1 Hz, 100 pulses), baseline 100.00±2.53, n=8 neurons): 161.84±4.38%; iLTP after CCK8s followed by LFLS ([3]; CCK8s+1 Hz group vs aCSF+1 Hz): large iLTP
Cc1cccc(NC(=O)N[C@@H]2N=C(c3ccccc3)c3ccccc3N(C)C2=O)c1 [L365,260] |  | 16.9 µM | 
